Measurements published in PMC11352859, “Functionalized Congeners of 2H-Chromene P2Y6 Receptor Antagonists” (Cells, 2024).

Columns and labels:
[1] = molecular target: T1, hP2Y6R (Homo sapiens, UniProt Q15077); experiment: UDP (100 nM)-induced Ca2+ mobilization in hP2Y6R stably transfected 1321N1 astrocytoma cells; type: cell-based; settings: for IC50: UDP 100 nM, 3–4 independent triplicate determinations, read-out: IC50, hP2Y6R (Mean ± SEM)
T1 construct: expressed in transfected cells
Procedure: To screen for P2Y6R antagonist activity, PLC-mediated calcium mobilization assays were carried out using the recombinant human P2Y6R stably expressed in 1321N1 astrocytoma cells (hP2Y6R-1321N1) according to the previously published method. Briefly, the hP2Y6R-1321N1 cells were seeded on 96-well black plates and incubated overnight. The antagonists were pretreated along with the FLIPR dye (Calcium 6 assay kit, Molecular Devices, San Jose, CA, USA) containing 5 mM probenecid for 45 min, prior to agonist addition followed by an immediate intracellular Ca^2+ measurement. […] Here, probenecid was used as an organic anion transporter inhibitor to prevent the efflux of the dye into the extracellular environment. During incubation, the membrane permeable dye enters the cytoplasm and cleaves the acetoxymethyl protection to enable Ca^2+ binding. When the P2Y6R was activated by UDP, the increased calcium concentration was directly measured by intracellular changes in the fluorescence intensity with a Fluorescent Imaging Plate Reader (FLIPR^TETRA, Molecular Devices, San Jose, CA, USA).

[2] = tested on: other P2YRs; settings: at high µM concentrations; ref [29],[43]; cited from earlier work
[3] = tested on: 45 target sites (receptors, channels, and transporters); experiment: PDSP off-target binding screen at 45 target sites; parameters: species or system human; settings: PDSP binding assays
Source text: (§1) Table S2. Off-target screening (to replace table later). We thank Dr. Bryan L. Roth (Univ. North Carolina at Chapel Hill) and National Institute of Mental Health's Psychoactive Drug Screening Program (Contract # HHSN-271-2008-00025-C) for screening data. Reference: Besnard et al.
(§2) Procedures: https://pdsp.unc.edu/pdspweb/content/UNC-CH%20Protocol%20Book.pdf […]
(§3) nucleosides were found at the following sites (human unless noted): 5HT1A, 5HT1B, 5HT1D, […]
(§4) β3, BZP rat brain site, D1, D2, D3, D4, D5, GABAA, H1, H2, H3, H4, M1, M2, M5, δ-opioid receptor (DOR), κ-opioid receptor (KOR), μ-opioid receptor (MOR), σ1, σ2, DAT, NET, SERT. Ki values […]
(§5) Compound # PDSP # Receptor LogKi Ki (nM)

[4] = molecular target: T2, α2A (Homo sapiens, UniProt P08913); experiment: PDSP binding assay, α2A; settings: PDSP, mean, n = 2; read-out: Ki, α2A
T2 construct: NIMH Psychoactive Drug Screening Program (PDSP)
T2 sequence (P08913 1-465): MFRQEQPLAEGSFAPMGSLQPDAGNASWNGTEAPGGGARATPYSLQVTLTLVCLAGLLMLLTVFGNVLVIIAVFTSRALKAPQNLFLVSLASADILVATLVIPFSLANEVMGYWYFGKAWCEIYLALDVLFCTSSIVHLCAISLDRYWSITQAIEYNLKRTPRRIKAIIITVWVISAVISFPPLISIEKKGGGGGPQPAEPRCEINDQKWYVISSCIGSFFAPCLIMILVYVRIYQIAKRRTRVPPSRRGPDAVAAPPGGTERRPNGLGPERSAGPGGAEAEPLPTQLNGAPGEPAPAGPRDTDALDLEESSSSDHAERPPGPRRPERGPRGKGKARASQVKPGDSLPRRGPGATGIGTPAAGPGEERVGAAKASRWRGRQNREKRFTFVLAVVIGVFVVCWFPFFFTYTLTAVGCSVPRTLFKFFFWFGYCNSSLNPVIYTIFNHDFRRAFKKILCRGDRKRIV
Source text: as §1, §2, §3, §4, §5

[5] = molecular target: T3, α2B (Homo sapiens, UniProt P18089); experiment: PDSP binding assay, α2B; settings: mean, n = 2
T3 construct: NIMH Psychoactive Drug Screening Program (PDSP)
T3 sequence (P18089 1-450): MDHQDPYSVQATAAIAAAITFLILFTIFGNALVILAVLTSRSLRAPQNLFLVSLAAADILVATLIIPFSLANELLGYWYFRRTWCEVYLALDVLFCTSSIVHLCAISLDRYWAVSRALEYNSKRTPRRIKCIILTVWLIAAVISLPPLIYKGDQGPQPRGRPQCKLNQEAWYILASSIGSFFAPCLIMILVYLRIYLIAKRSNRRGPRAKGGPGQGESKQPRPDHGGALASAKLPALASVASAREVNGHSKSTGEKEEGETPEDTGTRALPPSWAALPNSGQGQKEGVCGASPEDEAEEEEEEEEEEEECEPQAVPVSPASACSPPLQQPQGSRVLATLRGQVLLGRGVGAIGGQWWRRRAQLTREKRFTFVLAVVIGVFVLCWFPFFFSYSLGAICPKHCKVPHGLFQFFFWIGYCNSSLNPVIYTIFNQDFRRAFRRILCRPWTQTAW
Source text: as §1, §2, §3, §4, §5

[6] = molecular target: T4, 5-HT1D (Homo sapiens, UniProt P28221); experiment: PDSP binding assay, 5-HT1D; settings: PDSP, mean, n = 2; read-out: Ki, 5-HT1D
T4 construct: NIMH Psychoactive Drug Screening Program (PDSP)
T4 sequence (P28221 whole entry): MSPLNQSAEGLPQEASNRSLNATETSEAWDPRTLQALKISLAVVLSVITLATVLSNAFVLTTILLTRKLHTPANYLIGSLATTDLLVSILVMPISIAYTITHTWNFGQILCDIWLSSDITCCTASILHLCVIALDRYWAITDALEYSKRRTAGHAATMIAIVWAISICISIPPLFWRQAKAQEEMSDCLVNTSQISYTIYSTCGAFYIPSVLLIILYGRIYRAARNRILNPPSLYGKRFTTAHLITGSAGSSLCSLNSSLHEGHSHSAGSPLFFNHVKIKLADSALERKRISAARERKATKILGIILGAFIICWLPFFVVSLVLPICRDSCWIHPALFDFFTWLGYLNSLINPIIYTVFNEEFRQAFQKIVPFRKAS
Source text: as §1, §2, §3, §4, §5

[7] = molecular target: T5, D5 (Homo sapiens, UniProt P21918); experiment: PDSP binding assay, D5; settings: PDSP, mean, n = 2; read-out: Ki, D5
T5 construct: NIMH Psychoactive Drug Screening Program (PDSP)
T5 sequence (P21918 whole entry): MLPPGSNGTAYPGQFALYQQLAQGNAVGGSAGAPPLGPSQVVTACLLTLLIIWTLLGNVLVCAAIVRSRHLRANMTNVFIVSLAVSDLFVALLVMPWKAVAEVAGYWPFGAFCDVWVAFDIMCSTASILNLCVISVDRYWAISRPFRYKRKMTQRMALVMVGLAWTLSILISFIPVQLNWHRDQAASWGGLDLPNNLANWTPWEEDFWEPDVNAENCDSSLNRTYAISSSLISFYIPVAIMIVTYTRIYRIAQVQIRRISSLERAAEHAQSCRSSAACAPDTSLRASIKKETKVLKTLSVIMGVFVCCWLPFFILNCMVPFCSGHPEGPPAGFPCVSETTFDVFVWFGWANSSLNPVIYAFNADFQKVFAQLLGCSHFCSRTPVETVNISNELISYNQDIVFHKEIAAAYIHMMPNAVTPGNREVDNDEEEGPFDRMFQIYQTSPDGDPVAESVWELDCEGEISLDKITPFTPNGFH
Source text: as §1, §2, §3, §4, §5

[8] = molecular target: T6, H1 (Homo sapiens, UniProt P35367); experiment: PDSP binding assay, H1; settings: PDSP, mean, n = 2; read-out: Ki, H1
T6 construct: NIMH Psychoactive Drug Screening Program (PDSP)
T6 sequence (P35367 whole entry): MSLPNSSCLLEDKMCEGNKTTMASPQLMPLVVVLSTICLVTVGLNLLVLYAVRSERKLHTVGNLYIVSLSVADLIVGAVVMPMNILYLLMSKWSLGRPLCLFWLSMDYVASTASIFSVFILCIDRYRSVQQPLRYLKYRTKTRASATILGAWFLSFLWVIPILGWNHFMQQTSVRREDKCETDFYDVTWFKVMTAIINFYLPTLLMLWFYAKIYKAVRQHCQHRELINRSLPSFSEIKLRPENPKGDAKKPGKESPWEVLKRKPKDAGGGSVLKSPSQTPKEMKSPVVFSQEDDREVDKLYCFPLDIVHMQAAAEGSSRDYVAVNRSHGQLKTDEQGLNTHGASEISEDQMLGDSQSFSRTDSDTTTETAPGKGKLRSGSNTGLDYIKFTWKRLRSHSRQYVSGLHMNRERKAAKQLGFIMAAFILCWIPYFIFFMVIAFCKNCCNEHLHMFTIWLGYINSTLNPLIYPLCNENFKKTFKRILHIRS
Source text: as §1, §2, §3, §4, §5

[9] = molecular target: T7, hP2Y14R (Homo sapiens, UniProt Q15391); experiment: whole-cell binding of fluorescent antagonist MRS4174 in CHO-hP2Y14R cells (flow cytometry); settings: CHO-hP2Y14, competitive binding, flow cytometer
T7 construct: expressed in transfected cells
T7 sequence (Q15391 1-338): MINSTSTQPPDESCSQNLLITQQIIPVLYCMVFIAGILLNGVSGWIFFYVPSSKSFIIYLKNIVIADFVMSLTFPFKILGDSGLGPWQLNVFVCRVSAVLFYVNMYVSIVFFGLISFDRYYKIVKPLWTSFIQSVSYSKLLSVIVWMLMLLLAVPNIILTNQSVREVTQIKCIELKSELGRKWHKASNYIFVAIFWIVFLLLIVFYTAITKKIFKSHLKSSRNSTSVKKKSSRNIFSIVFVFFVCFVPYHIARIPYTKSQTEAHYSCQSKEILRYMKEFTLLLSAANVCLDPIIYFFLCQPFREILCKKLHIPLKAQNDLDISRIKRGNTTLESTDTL

[10] = molecular target: T7, hP2Y14R; parameters: method as in PMID 28527783, PMID 23235874; settings: previous members of the series; ref [29],[43]; cited from earlier work

T1 sequence (Q15077 whole entry): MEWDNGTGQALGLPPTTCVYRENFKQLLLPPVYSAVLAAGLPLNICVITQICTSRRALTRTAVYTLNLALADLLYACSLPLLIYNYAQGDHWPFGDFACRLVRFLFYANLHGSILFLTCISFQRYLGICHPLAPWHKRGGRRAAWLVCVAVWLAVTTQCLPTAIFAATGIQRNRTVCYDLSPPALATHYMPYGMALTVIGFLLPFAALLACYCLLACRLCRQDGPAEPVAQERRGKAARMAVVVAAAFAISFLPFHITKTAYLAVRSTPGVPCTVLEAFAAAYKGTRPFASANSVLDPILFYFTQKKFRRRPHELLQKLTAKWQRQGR

| SMILES | IC50 [1] [µM] | also measured |
| --- | --- | --- |
| NCCCCCCCC#Cc1cccc2c1OC(C(F)(F)F)C([N+](=O)[O-])=C2 (centres unmarked) [Compound 38] | 13 ± 3.9 |  |
| NCCCCCCC#Cc1ccc2c(c1)C=C([N+](=O)[O-])C(C(F)(F)F)O2 (centres unmarked) [Compound 29] | 20 ± 5.1 |  |
| NCCCC#Cc1ccc2c(c1)C=C([N+](=O)[O-])C(C(F)(F)F)O2 (centres unmarked) [Compound 23] | 9.98 ± 1.37 |  |
| CC[Si](C#Cc1cccc2c1OC(C(F)(F)F)C([N+](=O)[O-])=C2)(CC)CC (centres unmarked) [Compound 14] |  | inhibition at most other P2YRs [2]: minor |
| CC(C)(C)C(=O)NCCCCCCCC#Cc1ccc2c(c1)C=C([N+](=O)[O-])C(C(F)(F)F)O2 (centres unmarked) [Compound 31] | 17.3 ± 5.2 | off-target interactions at 45 target sites [3]: only two weak interactions; Ki [4]: 3.5 µM |
| O=[N+]([O-])C1=Cc2cccc(C#CCCCCCCCCBr)c2OC1C(F)(F)F (centres unmarked) [Compound 36, 8-(10-Bromodec-1-yn-1-yl)-3-nitro-2-(trifluoromethyl)-2H-chromene] | 4.79 ± 1.45 |  |
| CC(C)(C)OC(=O)NCCCCCCCCC#Cc1cccc2c1OC(C(F)(F)F)C([N+](=O)[O-])=C2 (centres unmarked) [Compound 39] | 23.8 ± 6.8 |  |
| O=C(O)CCOCCOCCOCCOCC#Cc1ccc2c(c1)C=C([N+](=O)[O-])C(C(F)(F)F)O2 (centres unmarked) [Compound 35] | 63.3 ± 30 |  |
| CC(C)(C)OC(=O)NCCCCCCCC#Cc1cccc2c1OC(C(F)(F)F)C([N+](=O)[O-])=C2 (centres unmarked) [Compound 37] | 4.96 ± 1.96 | fold lower affinity compared to 30 ([1]; hP2Y6R IC50 ratio): 31 fold; Ki [5]: 4.8 µM; Ki [6]: 3.5 µM; Ki [7]: 4.2 µM; Ki [8]: 7.3 µM; Ki [4]: 5.2 µM; IC50 [9]: 31.2 ± 12.2 µM |
| O=C(O)CCOCCOCCOCCOCC#Cc1cccc2c1OC(C(F)(F)F)C([N+](=O)[O-])=C2 (centres unmarked) [Compound 41] | > 50 |  |
| O=[N+]([O-])C1=Cc2ccc(Cl)cc2OC1C(F)(F)F (centres unmarked) [Compound 7] |  | hP2Y14R binding [10]: inactive |
| NCCCCCC#Cc1ccc2c(c1)C=C([N+](=O)[O-])C(C(F)(F)F)O2 (centres unmarked) [Compound 27] | 12.4 ± 1.3 |  |
| CC(C)(C)OC(=O)NCCCC#Cc1ccc2c(c1)C=C([N+](=O)[O-])C(C(F)(F)F)O2 (centres unmarked) [Compound 22] | 1.87 ± 0.11 |  |
| NCCCCCCCCC#Cc1ccc2c(c1)C=C([N+](=O)[O-])C(C(F)(F)F)O2 (centres unmarked) [Compound 34] | 20 ± 5.2 |  |
